# Assay results: patent US7655671B2, “Morphinan derivatives, the quaternary ammonium salts thereof substituted in position 14, method for production and use thereof” (priority 2002, dated 2010)
# Structures can show the parent of a compound that is named as a salt.
# Molecular target: T1, μ-opioid receptors (Rattus norvegicus, UniProt P33535)
# T1 construct: from tissue; host or cells: rat brain homogenate
# Assay: Opioid receptor binding studies on rat's brain homogenisates with [3H]DAMGO
# Settings: not given
# T1 sequence (P33535 whole entry): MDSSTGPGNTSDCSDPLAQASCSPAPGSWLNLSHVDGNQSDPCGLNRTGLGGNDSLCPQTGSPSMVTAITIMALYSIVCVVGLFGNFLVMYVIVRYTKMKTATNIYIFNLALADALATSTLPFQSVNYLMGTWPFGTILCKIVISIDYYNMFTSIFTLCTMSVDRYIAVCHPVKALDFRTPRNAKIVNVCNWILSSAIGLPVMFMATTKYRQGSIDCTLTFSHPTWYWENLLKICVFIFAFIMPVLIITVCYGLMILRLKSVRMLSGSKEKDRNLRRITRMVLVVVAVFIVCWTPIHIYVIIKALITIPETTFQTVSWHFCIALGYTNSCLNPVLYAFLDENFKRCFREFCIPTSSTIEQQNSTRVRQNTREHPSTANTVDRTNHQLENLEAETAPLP
row,Compound,Ki [nM]
1,"C[N@+]1(CC2CCCO2)CC[C@]23c4c5ccc(O)c4OC2C(=O)CCC3(OCCCc2ccccc2)C1C5.[I-] (stereo partly drawn) [Compound 40, (17R)-4,5α-epoxy-3-hydroxy-17-methyl-6-oxo-14β-[(3-phenylpropyl)oxy]-17-[(2-R,S-tetrahydrofurfuran-2-yl)methyl]morphinanium-iodide]",0.37
2,"C=CC[N@@+]1(C)CC[C@]23c4c5ccc(O)c4O[C@H]2C(=O)CC[C@@]3(OCC)[C@H]1C5.[I-] [Compound 41, (17R)-17-allyl-4,5α-epoxy-14β-ethoxy-3-hydroxy-17-methyl-6-oxomorphinanium-iodide]",2.32
3,"C=CC[N@+]1(C)CC[C@]23c4c5ccc(O)c4O[C@H]2C(=O)CC[C@@]3(OC)[C@H]1C5.[I-] [Compound 43, (17S)-17-allyl-4,5α-epoxy-3-hydroxy-14β-methoxy-17-methyl-6-oxomorphinanium-iodide]",1.33
4,"COc1ccc2c3c1O[C@H]1C(=O)CC[C@@]4(OCCCc5ccccc5)[C@@H](C2)[N@@+](C)(CC2CC2)CC[C@]314.[I-] [Compound 49, (17R)-17-cyclopropylmethyl-4,5α-epoxy-3-methoxy-17-methyl-6-oxo-14β-[(3-phenylpropyl)oxy]morphinanium-iodide]",1.78
5,"O=C1CC[C@@]2(OCCCc3ccccc3)[C@H]3Cc4cccc5c4[C@@]2(CC[N@H+]3CC2CC2)[C@H]1O5.[Cl-] [Compound 54, 17-(cyclopropylmethyl)-4,5α-epoxy-14β-[(3-phenylpropyl)oxy]morphinan-6-one hydrochloride]",0.84
6,"O=C1CC[C@@]2(OCCCc3ccccc3)[C@H]3Cc4cccc(O)c4[C@@]2(CC[N@H+]3CC2CC2)C1.[Cl-] [Compound 55, 17-(cyclopropylmethyl)-4-hydroxy-14β-[(3-phenylpropyl)oxy]morphinan-6-one hydrochloride]",0.4
7,"COc1cccc2c1[C@]13CC[N@@H+](CC4CC4)[C@H](C2)[C@]1(OCCCc1ccccc1)CCC(=O)C3.[Cl-] [Compound 56, 17-(cyclopropylmethyl)-4-methoxy-14β-[(3-phenylpropyl)oxy]morphinan-6-one hydrochloride]",0.34
8,"COc1cccc2c1[C@]13CCN(CC4CC4)[C@H](C2)[C@]1(OC)CCC(=O)C3 [Cyprodime, cyprodime, reference compound]",23.7

# Tested on: mice
# Assay: Hot-plate test (analgesia)
# Format: in vivo, mouse
# Settings: Mus musculus, sc, subcutaneous application, read-out: ED50 (μg/kg, sc)
# Experimental: A test on mice (“hot-plate test”) was carried out as described earlier (E. L. May et al., J. Med. Chem. 2000; 43, 5030-5036).
row,Compound,ED50 [µg/kg]
1,"O=C1CC[C@@]2(OCCCc3ccccc3)[C@H]3Cc4ccc(O)c5c4[C@@]2(CCN3CCc2ccccc2)[C@H]1O5 [Compound 9, 4,5α-epoxy-3-hydroxy-17-(2-phenylethyl)-14β-(3-phenylpropyloxy)morphinan-6-one hydrochloride]",11.7

# Tested on: not given
# Assay: not given
# Settings: not given
row,Compound,melting point
1,C=CCN1CC[C@]23c4c5ccc(OC)c4O[C@H]2C(=O)CC[C@@]3(OCCCc2ccccc2)C1C5,129 to 130 °C
2,CCN1CC[C@]23c4c5ccc(OC)c4O[C@H]2C(=O)CC[C@@]3(OCCCc2ccccc2)[C@H]1C5,95 to 101 °C
3,COc1ccc2c(c1O)[C@]13CCN(C)[C@H](C2)[C@]1(OCCCc1ccccc1)CCC(=O)C3,> 258 °C (dec.)
4,COc1ccc2c(c1OC)[C@]13CCN(C)C(C2)[C@]1(OCCCc1ccccc1)CCC(=O)C3,110 to 115 °C
5,CCO[C@@]12CCC(=O)[C@@H](C)[C@@]13CCN(C)[C@@H]2Cc1ccc(OC)c(O)c13,122 to 129 °C
6,CCO[C@@]12CCC(=O)[C@@H](C)[C@@]13CCN(C)C2Cc1ccc(OC)c(OC)c13,135 to 141 °C
7,COc1ccc2c(c1OC)[C@]13CCN(C)C(C2)[C@]1(O)CCC(=O)[C@H]3C,122 to 124 °C
8,COc1ccc2c(c1OC)[C@]13CCN(C)[C@H](C2)[C@]1(OCc1ccccc1)CCC(=O)[C@H]3C,166 to 167 °C
9,CC[N@@+]1(C)CC[C@]23c4c5ccc(O)c4O[C@H]2C(=O)CC[C@@]3(OCCCc2ccccc2)[C@H]1C5.[I-],171 to 176 °C
10,CCCCOC12CCC(=O)C3(Cc4ccccc4)Oc4c(O)ccc5c4[C@@]31CC[N+](C)(C)C2C5.[I-] (stereo partly drawn),188 to 195 °C
11,C=CC[N@+]1(C)CC[C@]23c4c5ccc(O)c4OC2(Cc2ccccc2)C(=O)CCC3(OCCCC)C1C5.[I-] (stereo partly drawn),200 to 205 °C
12,CCCCO[C@@]12CCC(=O)[C@@H]3Oc4c(O)ccc5c4[C@@]31CC[N+](C)(C)[C@@H]2C5.[I-],180 to 185 °C
13,C[N@+]1(CC2CC2)CC[C@]23c4c5ccc(O)c4O[C@H]2C(=O)CC[C@@]3(OCc2ccccc2-c2ccccc2)[C@H]1C5.[I-],219 to 221 °C
14,C[N@+]1(CC2CC2)CC[C@]23c4c5ccc(O)c4O[C@H]2C(=O)CC[C@@]3(OCc2ccc(Cl)cc2)[C@H]1C5.[I-],214 to 219 °C
15,COC12CCC(=O)C3Oc4c(O)ccc5c4[C@@]31CC[N@+](C)(CCc1ccccc1)C2C5.[I-] (stereo partly drawn),180 to 181 °C
16,O=C1CC[C@@]2(OCc3ccccc3)[C@H]3Cc4ccc(O)c5c4[C@@]2(CCN3CC2CC2)[C@H]1O5 (as salt: hydrobromid),> 210 °C (dec.)
17,Cc1ccccc1CO[C@@]12CCC(=O)[C@@H]3Oc4c(O)ccc5c4[C@@]31CCN(CC1CC1)[C@@H]2C5 (as salt: hydrochloride),198 to 200 °C
18,O=C1CC[C@@]2(OCc3ccccc3Cl)[C@H]3Cc4ccc(O)c5c4[C@@]2(CCN3CC2CC2)[C@H]1O5 (as salt: hydrochloride),165 to 168 °C
19,CCCCO[C@@]12CCC(=O)[C@@H]3Oc4c(O)ccc5c4[C@@]31CCN(CC1CC1)[C@@H]2C5 (as salt: hydrochloride),240 °C (dec.)
20,CC(C)CCO[C@@]12CCC(=O)[C@@H]3Oc4c(O)ccc5c4[C@@]31CCN(CC1CC1)[C@@H]2C5 (as salt: hydrochloride),168 to 170 °C
21,CC#COc1ccc2c3c1O[C@H]1C(=O)CC[C@@]4(OCc5cccc(Cl)c5)C(C2)N(C)CC[C@]314 (as salt: hydrochloride),145 to 150 °C
22,COc1ccc2c3c1O[C@H]1C(=O)CC[C@@]4(OCCCc5ccccc5)[C@@H](C2)N(CC2CCC2)CC[C@]314 (as salt: hydrochloride),128 to 133 °C
23,CCN1CC[C@]23c4c5ccc(O)c4O[C@H]2C(=O)CC[C@@]3(OCCCc2ccccc2)[C@H]1C5 (as salt: hydrochloride),178 to 180 °C

row,Compound,melting point
1,CCCN1CC[C@]23c4c5ccc(O)c4O[C@H]2C(=O)CC[C@@]3(OCCC(C)C)[C@H]1C5 (as salt: hydrochloride),175 to 185 °C (dec.)
2,COc1ccc2c(c1O)[C@]13CCN(C)[C@H](C2)[C@]1(OCc1ccccc1)CCC(=O)C3 (as salt: hydrochloride),> 220 °C (dec.)
3,COc1ccc2c(c1OC)[C@]13CCN(C)[C@H](C2)[C@]1(OCc1ccccc1)CCC(=O)C3 (as salt: hydrochloride),140 to 145 °C
4,COc1ccc2c(c1O)[C@]13CCN(C)[C@H](C2)[C@]1(OCc1ccc2ccccc2c1)CCC(=O)C3 (as salt: hydrochloride),195 to 197 °C
5,COc1ccc2c3c1O[C@H]1C(=O)CC[C@@]4(OCCCc5ccccc5)[C@@H](C2)N(CC2CC2)CC[C@]314 (as salt: hydrochloride),130 to 133 °C
6,COc1ccc2c(c1OC)[C@]13CCN(C)[C@H](C2)[C@]1(OCc1ccc2ccccc2c1)CCC(=O)C3 (as salt: hydrochloride),165 to 170 °C
7,COc1ccc2c(c1O)[C@]13CCN(C)[C@H](C2)[C@]1(OCCCc1ccccc1)CCC(=O)[C@H]3C (as salt: hydrochloride),> 210 °C (dec.)
8,COc1ccc2c3c1O[C@H]1C(=O)CC[C@@]4(OCCCc5ccccc5)C(C2)N(CC2CCCO2)CC[C@]314 (stereo partly drawn) (as salt: hydrochloride),121 to 123 °C
9,"COc1ccc2c3c1O[C@H]1C(=O)CC[C@@]4(OCCCc5ccccc5)[C@@H](C2)N(CCc2ccccc2)CC[C@]314 (as salt: hydrochloride) [Compound 4, 4,5α-epoxy-3-methoxy-17-(2-phenylethyl)-14β-(3-phenylpropyloxy)morphinan-6-one hydrochloride]",128 to 130 °C
10,"O=C1CC[C@@]2(OCCCc3ccccc3)[C@H]3Cc4ccc(O)c5c4[C@@]2(CCN3CC2CCC2)[C@H]1O5 (as salt: hydrochloride) [Compound 7, 17-cyclobutylmethyl-4,5α-epoxy-3-hydroxy-14β-(3-phenylpropyloxy)morphinan-6-one hydrochloride]",> 227 °C (dec.)
11,"O=C1CC[C@@]2(OCCCc3ccccc3)[C@H]3Cc4ccc(O)c5c4[C@@]2(CCN3CCc2ccccc2)[C@H]1O5 (as salt: hydrochloride) [Compound 9, 4,5α-epoxy-3-hydroxy-17-(2-phenylethyl)-14β-(3-phenylpropyloxy)morphinan-6-one hydrochloride]",> 218 °C (dec.)
12,"O=C1CC[C@@]2(OCCCc3ccccc3)C3Cc4ccc(O)c5c4[C@@]2(CCN3CC2CCCO2)[C@H]1O5 (stereo partly drawn) (as salt: hydrochloride) [Compound 10, 4,5α-epoxy-17-[2-((R,S)-tetrahydrofuran-2-yl)methyl]-3-hydroxy-14β-(3-phenylpropyloxy)morphinan-6-one hydrochloride]",170 to 172 °C
13,COc1ccc2c(c1O)[C@]13CCN(C)[C@H](C2)[C@]1(O)CCC(=O)[C@H]3C (stereo in doubt),> 185 °C (dec.)
14,CCCCOc1cccc2c1[C@]13CC[N@@H+](CC4CC4)C(C2)[C@]1(OCCCc1ccccc1)CCC(=O)C3.[Cl-] (stereo in doubt),172 to 177 °C
15,COc1ccc2c3c1O[C@@]1(Cc4ccccc4)C(=O)C=C[C@@]4(OC)[C@@H](C2)N(C)CC[C@]314 (stereo in doubt) (as salt: hydrochloride),164 to 166 °C
16,"C[N@+]1(CC2CCCO2)CC[C@]23c4c5ccc(O)c4OC2C(=O)CCC3(OCCCc2ccccc2)C1C5.[I-] (stereo partly drawn) [Compound 40, (17R)-4,5α-epoxy-3-hydroxy-17-methyl-6-oxo-14β-[(3-phenylpropyl)oxy]-17-[(2-R,S-tetrahydrofurfuran-2-yl)methyl]morphinanium-iodide]",156 to 159 °C
17,"C=CC[N@@+]1(C)CC[C@]23c4c5ccc(O)c4O[C@H]2C(=O)CC[C@@]3(OCC)[C@H]1C5.[I-] [Compound 41, (17R)-17-allyl-4,5α-epoxy-14β-ethoxy-3-hydroxy-17-methyl-6-oxomorphinanium-iodide]",130 to 134 °C
18,"C=CC[N@+]1(C)CC[C@]23c4c5ccc(O)c4O[C@H]2C(=O)CC[C@@]3(OC)[C@H]1C5.[I-] [Compound 43, (17S)-17-allyl-4,5α-epoxy-3-hydroxy-14β-methoxy-17-methyl-6-oxomorphinanium-iodide]",> 140 °C
19,"COc1ccc2c3c1O[C@H]1C(=O)CC[C@@]4(OCCCc5ccccc5)[C@@H](C2)[N@@+](C)(CC2CC2)CC[C@]314.[I-] [Compound 49, (17R)-17-cyclopropylmethyl-4,5α-epoxy-3-methoxy-17-methyl-6-oxo-14β-[(3-phenylpropyl)oxy]morphinanium-iodide]",133 to 136 °C
20,"O=C1CC[C@@]2(OCCCc3ccccc3)[C@H]3Cc4cccc5c4[C@@]2(CC[N@H+]3CC2CC2)[C@H]1O5.[Cl-] [Compound 54, 17-(cyclopropylmethyl)-4,5α-epoxy-14β-[(3-phenylpropyl)oxy]morphinan-6-one hydrochloride]",145 to 150 °C
21,"O=C1CC[C@@]2(OCCCc3ccccc3)[C@H]3Cc4cccc(O)c4[C@@]2(CC[N@H+]3CC2CC2)C1.[Cl-] [Compound 55, 17-(cyclopropylmethyl)-4-hydroxy-14β-[(3-phenylpropyl)oxy]morphinan-6-one hydrochloride]",> 170 °C (dec.)
22,"COc1cccc2c1[C@]13CC[N@@H+](CC4CC4)[C@H](C2)[C@]1(OCCCc1ccccc1)CCC(=O)C3.[Cl-] [Compound 56, 17-(cyclopropylmethyl)-4-methoxy-14β-[(3-phenylpropyl)oxy]morphinan-6-one hydrochloride]",121 to 126 °C
